From patent US20060045864A1, “Preventing marine biofouling by inhibiting adhesive release from barnacles” (priority 2004, published 2006)

What was measured:
[1] = test system: barnacle cypris larvae; experiment: settling and metamorphosis of barnacle cypris larvae in Petri dish with filtered seawater; assay type: in vivo, Balanus improvisus; details: 20 cypris larvae in 5 ml filtered seawater; for inhibition of settling rate of barnacle cypris larvae, compared between substances and control: 1 μM and 10 μM, accumulative settling frequency over 10 days (FIG. 1)
Protocol: (§1) All the below described experiments are on the species Balanus improvisus.
In a Petri dish containing 5 ml of filtered seawater, 20 cypris larvae and a defined concentration of the different pharmacological agents. […] 20 barnacle cypris larvae were added into a Petri dish containing 5 ml filtered seawater and different concentration of haloperidole and SCH 23990. […] Instead 1 μM of SCH 23390 inhibits the settling rate almost completely. Typically, 0.01-1.0% of the dopamine antagonist effects the desired result, typically dissolved in ethanol and mixed with commercially available paints, such as VC 17 New Technology (solid paint) International Coatings (Akzo Nobel bv, Arnhem, NL), SPF (Self polishing, SPC) (Loutrec AB, Lidingo, Sweden), TF (combined solid/ablative) (Loutrec AB), Fabi Eco (ablative paint) International Coatings (Akzo Nobel bv).

[2] = test system: release of barnacle adhesive; experiment: release of barnacle adhesive; parameters: species or system Balanus improvisus; details: in vivo
Excerpt: as §1
The release of the adhesive is governed by a G-protein coupled receptor and it is possible to stimulate release of the adhesive glands by adding dopamine. According to the same principle, it is possible to block the release of the adhesive proteins by using a dopamine antagonist that block the action of dopamine. […] The invention herein includes use of SCH23390, and salts and derivatives thereof, as well as other D1 or D5 receptor antagonists such as […], SCH 39166, SCH 233388 and the like or antagonists against other receptors with the same function.

Row | SMILES | inhibition of settling rate of barnacle cypris larvae, compared between substances and control [1] | inhibition of the release of barnacle adhesive [2] | effect on settlement rate of barnacle cypris larvae ([1]; 1 μM, accumulative settling over 10 days (FIG. 1))
1 | O=C(CCCN1CCC(O)(c2ccc(Cl)cc2)CC1)c1ccc(F)cc1 [haloperidol] | less effective | – | –
2 | CN1CCc2cc(Cl)c(O)cc2[C@@H](c2ccccc2)C1 [SCH 23390, (R)-(+)-7-Chloro-8-hydroxy-3-methyl-1-phenyl-2,3,4,5-tetrahydro-1H-3-benzazepine] | effectively inhibits the settling rate | can inhibit the release of barnacle adhesive | almost complete reducing effect
